Tests used:
RA-FLS cells [1] = test: Phospho-kinase proteome array, TNF-stimulated RA-FLS cells; format: cell-based, human; details: takinib 10 μM, TNF 30 ng/mL 30 min
Description: (§1) Rheumatoid arthritis fibroblast-like synoviocytes (RA-FLS) cells were prepared from surgical synovial samples at the University of Michigan as previously described. Cells were isolated from 4 individual patients (3 female, 1 male) and passaged no more than 2 times before use. Cells were cultured in CRML media, 10% FBS, 1% penicillin-streptomycin (PS), and 1% glutamate.
(§2) Briefly, 10^6 cells were plated and either no treatment (naïve) or pretreated with takinib (10 μM) or vehicle (DMSO) for 30 min prior to stimulation with TNF (30 ng/mL) for 30 min at 37 °C in 5% CO2 for phospho-kinase assay (R&D Systems). NF-κB and cytokine assays were performed as previously described; however, cells were incubated for 24 h post-TNF (30 ng/mL) or LPS (10 ng/mL) stimulation.

RA-FLS cells [2] = test: NF-κB signaling protein array, TNF-stimulated RA-FLS cells; format: cell-based, human; details: TNF 30 ng/mL 24 h
Description: as §1, §2

CCCn1/c(=N/C(=O)c2cccc(C(N)=O)c2)[nH]c2ccccc21 [takinib]
p38α phosphorylation, array signal, Mean (RA-FLS cells [1]; n=4): 59.41
p53 (pS15) array signal, Mean (RA-FLS cells [1]; n=4): 47.48
p53 (pS46) array signal, Mean (RA-FLS cells [1]; n=4): 126.377
p53 (pS392) array signal, Mean (RA-FLS cells [1]; n=4): 83.6435
p70 S6 Kinase (T389) array signal, Mean (RA-FLS cells [1]; n=4): 78.65
p70 S6 Kinase (site not given) array signal, Mean (RA-FLS cells [1]; n=4): 110.3643
β-Catenin array signal, Mean (RA-FLS cells [1]; n=4): 57.16
number of human kinases with significantly reduced phosphorylation (RA-FLS cells [1]; 45 phospho-kinase proteins profiled): 21
ASC expression, array signal, Mean (RA-FLS cells [2]; takinib 10 μM, n=4): 29.77
BCL10 expression, array signal, Mean (RA-FLS cells [2]; takinib 10 μM, n=4): 15.76
CARD6 expression, array signal, Mean (RA-FLS cells [2]; takinib 10 μM, n=4): 15.29
CD40/TNFRSFS expression, array signal, Mean (RA-FLS cells [2]; takinib 10 μM, n=4): 23.956
FADD/MORT1 expression, array signal, Mean (RA-FLS cells [2]; takinib 10 μM, n=4): 36.45
Fas/TNFRSF6/CD95 expression, array signal, Mean (RA-FLS cells [2]; takinib 10 μM, n=4): 172.1241
IKK1/IKKα/CHUK expression, array signal, Mean (RA-FLS cells [2]; takinib 10 μM, n=4): 55.68
IKK2/IKKβ expression, array signal, Mean (RA-FLS cells [2]; takinib 10 μM, n=4): 112.6481
IKKγ/NEMO expression, array signal, Mean (RA-FLS cells [2]; takinib 10 μM, n=4): 107.307
IL-1 RI expression, array signal, Mean (RA-FLS cells [2]; takinib 10 μM, n=4): 21.68
IL-17 RA expression, array signal, Mean (RA-FLS cells [2]; takinib 10 μM, n=4): 19.1835
IL-18 Rα expression, array signal, Mean (RA-FLS cells [2]; takinib 10 μM, n=4): 17.5855
IRAK1 expression, array signal, Mean (RA-FLS cells [2]; takinib 10 μM, n=4): 26.78
IRF5 expression, array signal, Mean (RA-FLS cells [2]; takinib 10 μM, n=4): 16.411
IRF8 expression, array signal, Mean (RA-FLS cells [2]; takinib 10 μM, n=4): 17.251
IkBα expression, array signal, Mean (RA-FLS cells [2]; takinib 10 μM, n=4): 33.4
IkBε expression, array signal, Mean (RA-FLS cells [2]; takinib 10 μM, n=4): 178.592
JNK1/2 expression, array signal, Mean (RA-FLS cells [2]; takinib 10 μM, n=4): 19.76
JNK2 expression, array signal, Mean (RA-FLS cells [2]; takinib 10 μM, n=4): 17.3675
LTBR/TNFRSF3 expression, array signal, Mean (RA-FLS cells [2]; takinib 10 μM, n=4): 22.136
MYD88 expression, array signal, Mean (RA-FLS cells [2]; takinib 10 μM, n=4): 36.28
Metadherin/AEG-1 expression, array signal, Mean (RA-FLS cells [2]; takinib 10 μM, n=4): 31.01
NFκB1 expression, array signal, Mean (RA-FLS cells [2]; takinib 10 μM, n=4): 66.143
NFκB2 expression, array signal, Mean (RA-FLS cells [2]; takinib 10 μM, n=4): 136.3483
NGF R/TNFRSF16 expression, array signal, Mean (RA-FLS cells [2]; takinib 10 μM, n=4): 16.68
RelA/p65 (pS529) array signal, Mean (RA-FLS cells [2]; takinib 10 μM, n=4): 41.57
RelA/p65 expression, array signal, Mean (RA-FLS cells [2]; takinib 10 μM, n=4): 55.81
SHARPIN expression, array signal, Mean (RA-FLS cells [2]; takinib 10 μM, n=4): 17.06
SOCS6 expression, array signal, Mean (RA-FLS cells [2]; takinib 10 μM, n=4): 64.37
STAT1 (pY701) array signal, Mean (RA-FLS cells [2]; takinib 10 μM, n=4): 15.5275
STAT1p91 expression, array signal, Mean (RA-FLS cells [2]; takinib 10 μM, n=4): 116.4024
STAT2 (pY689) array signal, Mean (RA-FLS cells [2]; takinib 10 μM, n=4): 15.96
STAT2 expression, array signal, Mean (RA-FLS cells [2]; takinib 10 μM, n=4): 148.6364
STING/TMEM173 expression, array signal, Mean (RA-FLS cells [2]; takinib 10 μM, n=4): 106.8409
TLR2 expression, array signal, Mean (RA-FLS cells [2]; takinib 10 μM, n=4): 15.725
TNF RI/TNFRSF1A expression, array signal, Mean (RA-FLS cells [2]; takinib 10 μM, n=4): 14.7
TNF RII/TNFRSF1B expression, array signal, Mean (RA-FLS cells [2]; takinib 10 μM, n=4): 18.3335
TRAF2 expression, array signal, Mean (RA-FLS cells [2]; takinib 10 μM, n=4): 17.884
TRAIL R1/DR4 expression, array signal, Mean (RA-FLS cells [2]; takinib 10 μM, n=4): 21.6
TRAIL R2/DR5 expression, array signal, Mean (RA-FLS cells [2]; takinib 10 μM, n=4): 91.34
c-Rel expression, array signal, Mean (RA-FLS cells [2]; takinib 10 μM, n=4): 16.52
clAP1/BIRC2 expression, array signal, Mean (RA-FLS cells [2]; takinib 10 μM, n=4): 25.47
clAP2/BIRC3 expression, array signal, Mean (RA-FLS cells [2]; takinib 10 μM, n=4): 18.82
p53 (pS46) array signal, Mean (RA-FLS cells [2]; takinib 10 μM, n=4): 14.94
p53 expression, array signal, Mean (RA-FLS cells [2]; takinib 10 μM, n=4): 17.85
number of NF-κB signaling proteins significantly altered (RA-FLS cells [2]; takinib, out of 45 profiled): 20

— PMC6918687, “Pharmacological inhibition of TAK1, with the selective inhibitor takinib, alleviates clinical manifestation of arthritis in CIA mice” (Arthritis Research & Therapy, 2019)
